Read-outs that look alike come from different tables or passages of the source.
Assays:
[1] = In vitro reverse iontophoretic extraction of mannitol and sodium (Example 3, second experiment); conditions: pig; for Extracted (mannitol/Na^+) flux (×10^3) ratio / Mannitol flux: pH 7.4
Procedure: In a second experiment, performed under identical conditions to the first (see FIG. 11), mannitol concentration was 5 mM for the first three hours of experiment, it was then reduced to 3 mM for a subsequent period of one hour and then increased to 10 mM for a subsequent period of one hour.
(§1) During the first 3-hour period, the entire content of the cathode solution was withdrawn every 60 minutes and the chamber was refilled with fresh buffer.
During the second 1-hour period, the 5 mM mannitol donor solution was replaced with 3 mM mannitol, and the cathodal chamber was then sampled every 30 minutes.
During the third 1-hour period, the 3 mM mannitol donor solution was replaced with 10 mM mannitol, and the cathodal chamber was then sampled every 30 minutes.

[2] = In vitro reverse iontophoretic extraction of mannitol and sodium with varied sodium level (Example 4); conditions: pig, pH 7.4
Procedure: The anode was placed in the sub-dermal, “donor” chamber, which contained a physiological pH 7.4 buffer (25 mM Tris/TrisHCl+4 mM KCl).
Both the concentration of the analyte of interest and the internal standard were modified during the experiment.
(§2) To facilitate the analytical chemistry, the donor solutions were spiked with ^14C-labeled mannitol.
(§3) The cathodal (collection) chamber, which contacted the outer surface of the skin, contained a 25 mM Tris/TrisHCl buffer at pH 7.4.
as §1
During the final 1-hour period, the donor solution was replaced with 5 mM mannitol/ 133 mM NaCl, and the cathodal chamber was then sampled every 30 minutes.

[3] = In vitro reverse iontophoretic extraction of glucose, mannitol and sodium (Example 6); type: in vitro ADME, pig
Procedure: To facilitate the analytical chemistry, the donor solutions were spiked with tritiated glucose and ^14C-labeled mannitol.
as §3
The experimental design was identical to that in FIG. 11, with the exception that both tritiated glucose and ^14C-labeled mannitol were present in the ‘donor’ anode chamber.
During this period, the entire content of the cathode solution was withdrawn every 60 minutes and the chamber was refilled with fresh buffer.

[4] = In vitro reverse iontophoretic extraction of mannitol and sodium (Example 3, first experiment); conditions: pig, pH 7.4
Procedure: The anode was placed in the sub-dermal, “donor” chamber, which contained a physiological pH 7.4 buffer (25 mM Tris/TrisHCl+133 mM NaCl) to which the analyte mannitol was added.
In a first experiment, mannitol concentration was 5 mM for the first three hours of experiment and was then increased to 10 mM for a subsequent period of three hours.
as §2
The cathodal (collection) chamber, which contacted the outer surface of the skin contained a 25 mM Tris/TrisHCl buffer at pH 7.4.
as §1
During the second 3-hour period, the 5 mM mannitol donor solution was replaced with 10 mM mannitol, and the cathodal chamber was then sampled every 30 minutes.

[5] = Procedure: Every hour, the entire content of the cathode solution was withdrawn and the chamber refilled with fresh buffer.
Three replicates were performed for each lithium concentration.

Structure (SMILES): OC[C@@H](O)[C@@H](O)[C@H](O)[C@H](O)CO [Mannitol, mannitol]
- K (Qmann/QNa^+=K.[mann]/[Na^+], slope of FIG. 15b) [1]: 0.07
- Extracted (mannitol/Na^+) flux (×10^3) ratio ([1]; 60 min, 5 mM): 1.52 ± 0.4 ×10^3
- Mannitol flux ([1]; 60 min, 5 mM): 13.5 ± 4.1 nmol · h^−1 · cm^−2
- Extracted (mannitol/Na^+) flux (×10^3) ratio ([1]; 120 min, 5 mM): 2.5 ± 0.3 ×10^3
- Mannitol flux ([1]; 120 min, 5 mM): 25.8 ± 4.8 nmol · h^−1 · cm^−2
- Extracted (mannitol/Na^+) flux (×10^3) ratio ([1]; 180 min, 5 mM): 2.7 ± 0.3 ×10^3
- Mannitol flux ([1]; 180 min, 5 mM): 27.8 ± 4.4 nmol · h^−1 · cm^−2
- Extracted (mannitol/Na^+) flux (×10^3) ratio ([1]; 210 min, 3 mM): 1.5 ± 0.2 ×10^3
- Mannitol flux ([1]; 210 min, 3 mM): 16.6 ± 3.2 nmol · h^−1 · cm^−2
- Extracted (mannitol/Na^+) flux (×10^3) ratio ([1]; 240 min, 3 mM): 1.5 ± 0.5 ×10^3
- Mannitol flux ([1]; 240 min, 3 mM): 14.1 ± 2.8 nmol · h^−1 · cm^−2
- Extracted (mannitol/Na^+) flux (×10^3) ratio ([1]; 270 min, 10 mM): 5.2 ± 0.5 ×10^3
- Mannitol flux ([1]; 270 min, 10 mM): 49.6 ± 8.4 nmol · h^−1 · cm^−2
- Extracted (mannitol/Na^+) flux (×10^3) ratio ([1]; 300 min, 10 mM): 5.2 ± 0.7 ×10^3
- Mannitol flux ([1]; 300 min, 10 mM): 48.1 ± 8.7 nmol · h^−1 · cm^−2
- Extracted (mannitol/Na^+) flux (×10^3) ratio ([2]; 60 min, 5 mM): 1.2 ± 0.2 ×10^3
- Mannitol flux ([2]; 60 min, 5 mM): 9.7 ± 1.5 nmol · h^−1 · cm^−2
- Extracted (mannitol/Na^+) flux (×10^3) ratio ([2]; 120 min, 5 mM): 2.1 ± 0.1 ×10^3
- Mannitol flux ([2]; 120 min, 5 mM): 22.0 ± 1.6 nmol · h^−1 · cm^−2
- Extracted (mannitol/Na^+) flux (×10^3) ratio ([2]; 180 min, 5 mM): 2.6 ± 0.1 ×10^3
- Mannitol flux ([2]; 180 min, 5 mM): 28.8 ± 1.3 nmol · h^−1 · cm^−2
- Extracted (mannitol/Na^+) flux (×10^3) ratio ([2]; 270 min, 3 mM): 1.6 ± 0.1 ×10^3
- Mannitol flux ([2]; 270 min, 3 mM): 15.9 ± 0.7 nmol · h^−1 · cm^−2
- Extracted (mannitol/Na^+) flux (×10^3) ratio ([2]; 300 min, 3 mM): 1.4 ± 0.1 ×10^3
- Mannitol flux ([2]; 300 min, 3 mM): 15.3 ± 0.7 nmol · h^−1 · cm^−2
- Extracted (mannitol/Na^+) flux (×10^3) ratio ([2]; 330 min, 5 mM): 2.7 ± 0.1 ×10^3
- Mannitol flux ([2]; 330 min, 5 mM): 29.0 ± 0.8 nmol · h^−1 · cm^−2
- Extracted (mannitol/Na^+) flux (×10^3) ratio ([2]; 360 min, 5 mM): 2.6 ± 0.1 ×10^3
- Mannitol flux ([2]; 360 min, 5 mM): 29.3 ± 0.6 nmol · h^−1 · cm^−2
- Extracted flux ratio (10^3×) relative to Na^+ ([3]; Experiment A: subdermal glucose 3 mM, mannitol 7 mM, 60 min): 2.01 ± 0.33 10^3×
- Extracted flux ratio (10^3×) relative to Na^+ ([3]; Experiment A: subdermal glucose 3 mM, mannitol 7 mM, 120 min): 3.21 ± 0.21 10^3×
- Extracted flux ratio (10^3×) relative to Na^+ ([3]; Experiment A: subdermal glucose 3 mM, mannitol 7 mM, 180 min): 3.64 ± 0.31 10^3×
- Extracted flux ratio (10^3×) relative to Na^+ ([3]; Experiment A: subdermal glucose 3 mM, mannitol 7 mM, 240 min): 3.98 ± 0.24 10^3×
- Extracted flux ratio (10^3×) relative to Na^+ ([3]; Experiment A: subdermal glucose 3 mM, mannitol 7 mM, 300 min): 4.29 ± 0.40 10^3×
- Extracted flux ratio (10^3×) relative to Na^+ ([3]; Experiment A: subdermal glucose 3 mM, mannitol 7 mM, 360 min): 4.65 ± 0.26 10^3×
- Extracted flux ratio (10^3×) relative to Na^+ ([3]; Experiment B: subdermal glucose 5 mM, mannitol 5 mM, 60 min): 1.29 ± 0.58 10^3×
- Extracted flux ratio (10^3×) relative to Na^+ ([3]; Experiment B: subdermal glucose 5 mM, mannitol 5 mM, 120 min): 2.13 ± 0.47 10^3×
- Extracted flux ratio (10^3×) relative to Na^+ ([3]; Experiment B: subdermal glucose 5 mM, mannitol 5 mM, 180 min): 2.53 ± 0.41 10^3×
- Extracted flux ratio (10^3×) relative to Na^+ ([3]; Experiment B: subdermal glucose 5 mM, mannitol 5 mM, 240 min): 2.73 ± 0.38 10^3×
- Extracted flux ratio (10^3×) relative to Na^+ ([3]; Experiment B: subdermal glucose 5 mM, mannitol 5 mM, 300 min): 2.98 ± 0.41 10^3×
- Extracted flux ratio (10^3×) relative to Na^+ ([3]; Experiment B: subdermal glucose 5 mM, mannitol 5 mM, 360 min): 3.15 ± 0.30 10^3×
- Extracted flux ratio (10^3×) relative to Na^+ ([3]; Experiment C: subdermal glucose 7 mM, mannitol 3 mM, 60 min): 0.86 ± 0.45 10^3×
- Extracted flux ratio (10^3×) relative to Na^+ ([3]; Experiment C: subdermal glucose 7 mM, mannitol 3 mM, 120 min): 1.38 ± 0.46 10^3×
- Extracted flux ratio (10^3×) relative to Na^+ ([3]; Experiment C: subdermal glucose 7 mM, mannitol 3 mM, 180 min): 1.62 ± 0.44 10^3×
- Extracted flux ratio (10^3×) relative to Na^+ ([3]; Experiment C: subdermal glucose 7 mM, mannitol 3 mM, 240 min): 1.71 ± 0.39 10^3×
- Extracted flux ratio (10^3×) relative to Na^+ ([3]; Experiment C: subdermal glucose 7 mM, mannitol 3 mM, 300 min): 1.83 ± 0.40 10^3×
- Extracted flux ratio (10^3×) relative to Na^+ ([3]; Experiment C: subdermal glucose 7 mM, mannitol 3 mM, 360 min): 1.94 ± 0.36 10^3×
- K (analyte/Na^+ extraction ratio vs sub-dermal concentration ratio, slope of FIG. 22b) ([3]; iontophoresis of 6 hours at 0.5 mA/cm^2): 0.078
- K′ (analyte/Na^+ extraction ratio vs analyte sub-dermal concentration, slope of FIG. 22a) ([3]; iontophoresis of 6 hours at 0.5 mA/cm^2, Na^+ fixed 133 mM): 0.586×10^−3
- Extracted (mannitol/Na^+) flux (×10^3) ratio ([4]; 60 min, 5 mM): 1.7 ± 0.8 ×10^3
- Mannitol flux ([4]; 60 min, 5 mM): 13.3 ± 7.6 nmol · h^−1 · cm^−2
- Extracted (mannitol/Na^+) flux (×10^3) ratio ([4]; 120 min, 5 mM): 2.2 ± 0.3 ×10^3
- Mannitol flux ([4]; 120 min, 5 mM): 21.0 ± 4.7 nmol · h^−1 · cm^−2
- Extracted (mannitol/Na^+) flux (×10^3) ratio ([4]; 180 min, 5 mM): 2.5 ± 0.3 ×10^3
- Mannitol flux ([4]; 180 min, 5 mM): 25.2 ± 4.3 nmol · h^−1 · cm^−2
- Extracted (mannitol/Na^+) flux (×10^3) ratio ([4]; 210 min, 10 mM): 5.0 ± 0.2 ×10^3
- Mannitol flux ([4]; 210 min, 10 mM): 52.2 ± 4.4 nmol · h^−1 · cm^−2
- Extracted (mannitol/Na^+) flux (×10^3) ratio ([4]; 240 min, 10 mM): 5.1 ± 0.5 ×10^3
- Mannitol flux ([4]; 240 min, 10 mM): 53.2 ± 7.7 nmol · h^−1 · cm^−2
- Extracted (mannitol/Na^+) flux (×10^3) ratio ([4]; 270 min, 10 mM): 5.2 ± 0.5 ×10^3
- Mannitol flux ([4]; 270 min, 10 mM): 54.1 ± 6.8 nmol · h^−1 · cm^−2
- Extracted (mannitol/Na^+) flux (×10^3) ratio ([4]; 300 min, 10 mM): 5.5 ± 0.3 ×10^3
- Mannitol flux ([4]; 300 min, 10 mM): 58.1 ± 4.5 nmol · h^−1 · cm^−2
- Extracted (mannitol/Na^+) flux (×10^3) ratio ([4]; 330 min, 10 mM): 5.7 ± 0.4 ×10^3
- Mannitol flux ([4]; 330 min, 10 mM): 60.9 ± 6.8 nmol · h^−1 · cm^−2
- Extracted (mannitol/Na^+) flux (×10^3) ratio ([4]; 360 min, 10 mM): 6.0 ± 0.3 ×10^3
- Mannitol flux ([4]; 360 min, 10 mM): 63.2 ± 6.2 nmol · h^−1 · cm^−2

Structure (SMILES): [Li] [lithium]
- (10^3×) Extracted (lithium/Na^+) flux ratio ([5]; (10^3×) subdermal [lithium]/[Na^+] ratio 3.4, 60 min): 0.71 ± 0.28 ×10^3
- (10^3×) Extracted (lithium/Na^+) flux ratio ([5]; (10^3×) subdermal [lithium]/[Na^+] ratio 3.4, 120 min): 1.38 ± 0.19 ×10^3
- (10^3×) Extracted (lithium/Na^+) flux ratio ([5]; (10^3×) subdermal [lithium]/[Na^+] ratio 3.4, 180 min): 1.54 ± 0.20 ×10^3
- (10^3×) Extracted (lithium/Na^+) flux ratio ([5]; (10^3×) subdermal [lithium]/[Na^+] ratio 3.4, 240 min): 1.80 ± 0.03 ×10^3
- (10^3×) Extracted (lithium/Na^+) flux ratio ([5]; (10^3×) subdermal [lithium]/[Na^+] ratio 3.4, 300 min): 1.62 ± 0.03 ×10^3
- (10^3×) Extracted (lithium/Na^+) flux ratio ([5]; (10^3×) subdermal [lithium]/[Na^+] ratio 6.5, 60 min): 1.48 ± 0.41 ×10^3
- (10^3×) Extracted (lithium/Na^+) flux ratio ([5]; (10^3×) subdermal [lithium]/[Na^+] ratio 6.5, 120 min): 2.65 ± 0.55 ×10^3
- (10^3×) Extracted (lithium/Na^+) flux ratio ([5]; (10^3×) subdermal [lithium]/[Na^+] ratio 6.5, 180 min): 3.13 ± 0.78 ×10^3
- (10^3×) Extracted (lithium/Na^+) flux ratio ([5]; (10^3×) subdermal [lithium]/[Na^+] ratio 6.5, 240 min): 2.79 ± 0.35 ×10^3
- (10^3×) Extracted (lithium/Na^+) flux ratio ([5]; (10^3×) subdermal [lithium]/[Na^+] ratio 6.5, 300 min): 3.13 ± 0.51 ×10^3
- (10^3×) Extracted (lithium/Na^+) flux ratio ([5]; (10^3×) subdermal [lithium]/[Na^+] ratio 10.3, 60 min): 2.28 ± 0.43 ×10^3
- (10^3×) Extracted (lithium/Na^+) flux ratio ([5]; (10^3×) subdermal [lithium]/[Na^+] ratio 10.3, 120 min): 4.45 ± 0.64 ×10^3
- (10^3×) Extracted (lithium/Na^+) flux ratio ([5]; (10^3×) subdermal [lithium]/[Na^+] ratio 10.3, 180 min): 5.25 ± 0.48 ×10^3
- (10^3×) Extracted (lithium/Na^+) flux ratio ([5]; (10^3×) subdermal [lithium]/[Na^+] ratio 10.3, 240 min): 5.64 ± 0.52 ×10^3
- (10^3×) Extracted (lithium/Na^+) flux ratio ([5]; (10^3×) subdermal [lithium]/[Na^+] ratio 10.3, 300 min): 5.45 ± 0.36 ×10^3
- K′ (QLi/QNa=K′.[Li], slope of FIG. 25a) ([5]; pig, pH 7.4): 4.18×10^−3
- K (QLi/QNa=K.[Li]/[Na], slope of FIG. 25b) ([5]; short (5-hour) period of iontophoresis at 0.5 mA/cm^2): 0.56

Reference: US20050074810A1, “Method for non-invasilvely determining the relative levels of two biological substances” (priority 2001, published 2005)
